The text below walks through data of ChEMBL document CHEMBL1131893, “Antitumor agents 201. Cytotoxicity of harmine and beta-carboline analogs” (1999).

Values after ≈ are worked out from the molar mass of the structure shown.

The first assay concerns A549. Description: In vitro cytotoxic activity was determined against lung carcinoma (A549) cell line. The format is functional. The following applies: Homo sapiens, read-out: ED50 (the source's name).
On to `COc1ccc2c(c1)[nH]c1c(C)nccc12` [HARMINE], for which the EC50 amounted to 2.4 µg/mL (≈ 11.3 µM).

As for `COc1ccc2c(c1)[nH]c1c(/C=C/c3ccc([N+](=O)[O-])cc3)nccc12`, the EC50 came out at 0.9 µg/mL (≈ 2.61 µM).

Take `COc1ccc2c(c1)[nH]c1c(C)[n+](C)ccc12.[I-]`: the EC50 is 0.9 µg/mL.

Regarding `CCCCCCOc1ccc2c(c1)[nH]c1c(C)nccc12`, the EC50 is 4.4 µg/mL (≈ 15.6 µM).

With `CCCCCCCCC1NC(C(=O)O)Cc2c1[nH]c1cc(OC)ccc21` (stereo not drawn), the EC50 was more than 20 µg/mL.

As for `Br.COc1ccc2c3c([nH]c2c1)C(C)=NCC3`, the EC50 is 9.8 µg/mL.

The test system of the next assay is CAKI-1. Description: In vitro cytotoxic activity was determined against renal cancer (CAKI-1) cell line. The format is functional. The following applies: Homo sapiens, read-out: ED50 (the source's name).
Consider `COc1ccc2c(c1)[nH]c1c(C)nccc12` [HARMINE], for which the EC50 was 1.9 µg/mL (≈ 8.95 µM).

`COc1ccc2c(c1)[nH]c1c(/C=C/c3ccc([N+](=O)[O-])cc3)nccc12`: the EC50 stood at 7 µg/mL (≈ 20.3 µM).

For `COc1ccc2c(c1)[nH]c1c(C)[n+](C)ccc12.[I-]`, the EC50 came to 8.9 µg/mL.

For `CCCCCCOc1ccc2c(c1)[nH]c1c(C)nccc12`, the EC50 is 2.2 µg/mL (≈ 7.79 µM).

For `CCCCCCCCC1NC(C(=O)O)Cc2c1[nH]c1cc(OC)ccc21` (stereo not drawn), the EC50 is more than 20 µg/mL.

For `Br.COc1ccc2c3c([nH]c2c1)C(C)=NCC3`, the EC50 was more than 10 µg/mL.

For the next assay, the system named is HCT-8. The experiment in a line: In vitro cytotoxic activity was determined against ileocecal carcinoma (HCT-8) cell line. The format is functional. The following applies: Homo sapiens, read-out: ED50 (the source's name).
Regarding `CCCCCCOc1ccc2c(c1)[nH]c1c(C)nccc12`, the EC50 came out at 3.8 µg/mL (≈ 13.5 µM).

The subject of a further assay is HEL. Description: In vitro cytotoxic activity was determined against embryonic lung fibroblast (HEL) cell line. Conditions: Homo sapiens, read-out: ED50 (the source's name). The format is functional.
For `COc1ccc2c(c1)[nH]c1c(C)nccc12` [HARMINE], the EC50 was 1.9 µg/mL (≈ 8.95 µM).

The next assay has as its system HOS. Description: In vitro cytotoxic activity was determined against osteosarcoma ( HOS) cell line. The following applies: Homo sapiens, read-out: ED50 (the source's name). The format is functional.
In the case of `CCCCCCOc1ccc2c(c1)[nH]c1c(C)nccc12`, the EC50 was 2.5 µg/mL (≈ 8.85 µM).

In another assay the test system is KB. Description: In vitro cytotoxic activity was determined against drug resistant tumor cell line KB-7d (pleotrophic resistance including MRP multidrug resistant protein). The format is functional. Conditions: Homo sapiens, read-out: ED50 (the source's name).
As to `COc1ccc2c(c1)[nH]c1c(C)nccc12` [HARMINE], the EC50 came out at 3.7 µg/mL (≈ 17.4 µM).

A further assay relates to KB. Description: In vitro cytotoxic activity was determined against epidermoid carcinoma of the nasopharynx (KB) cell line. The format is functional. Conditions: Homo sapiens, read-out: ED50 (the source's name).
With `COc1ccc2c(c1)[nH]c1c(C)nccc12` [HARMINE], the EC50 amounted to 2.2 µg/mL (≈ 10.4 µM).

As to `COc1ccc2c(c1)[nH]c1c(/C=C/c3ccc([N+](=O)[O-])cc3)nccc12`, the EC50 was 0.5 µg/mL (≈ 1.45 µM).

In the case of `COc1ccc2c(c1)[nH]c1c(C)[n+](C)ccc12.[I-]`, the EC50 was 7.2 µg/mL.

For `CCCCCCOc1ccc2c(c1)[nH]c1c(C)nccc12`, the EC50 came to 2.4 µg/mL (≈ 8.5 µM).

For `CCCCCCCCC1NC(C(=O)O)Cc2c1[nH]c1cc(OC)ccc21` (stereo not drawn), the EC50 is more than 20 µg/mL.

As for `Br.COc1ccc2c3c([nH]c2c1)C(C)=NCC3`, the EC50 is 9.7 µg/mL.

Another assay concerns KB. Description: In vitro cytotoxic activity was determined against drug resistant tumor cell line KB-CPT (pleotrophic mechanism including level of topoisomerase I). Conditions: Homo sapiens, read-out: ED50 (the source's name). The format is functional.
For `COc1ccc2c(c1)[nH]c1c(C)nccc12` [HARMINE], the EC50 was 4.3 µg/mL (≈ 20.3 µM).

The next assay relates to KB. The experiment in a line: In vitro cytotoxic activity was determined against drug resistant tumor cell line KB-VIN (expressing P-glycoprotein). Conditions: Homo sapiens, read-out: ED50 (the source's name). The format is functional.
For the molecule `COc1ccc2c(c1)[nH]c1c(C)nccc12` [HARMINE], the EC50 came to 2.5 µg/mL (≈ 11.8 µM).

The test system of a further assay is MCF7. Description: In vitro cytotoxic activity against MCF-7 (human breast cancer) cell line. The format is functional. The following applies: read-out: ED50 (the source's name).
As for `COc1ccc2c(c1)[nH]c1c(C)nccc12` [HARMINE], the EC50 stood at 10.5 µg/mL (≈ 49.5 µM).

Consider `COc1ccc2c(c1)[nH]c1c(/C=C/c3ccc([N+](=O)[O-])cc3)nccc12`, for which the EC50 was determined as 1.2 µg/mL (≈ 3.47 µM).

Regarding `COc1ccc2c(c1)[nH]c1c(C)[n+](C)ccc12.[I-]`, the EC50 came out at 6.2 µg/mL.

Take `CCCCCCOc1ccc2c(c1)[nH]c1c(C)nccc12`: the EC50 came out at 3.1 µg/mL (≈ 11 µM).

For `Br.COc1ccc2c3c([nH]c2c1)C(C)=NCC3`, the EC50 was 10 µg/mL.

Another assay deals with SK-MEL-2. The experiment in a line: In vitro cytotoxic activity was determined against melanoma cancer (SK-MEL-2) cell line. The format is functional. The following applies: Homo sapiens, read-out: ED50 (the source's name).
Consider `COc1ccc2c(c1)[nH]c1c(C)nccc12` [HARMINE], for which the EC50 was 18.5 µg/mL (≈ 87.2 µM).

As to `COc1ccc2c(c1)[nH]c1c(/C=C/c3ccc([N+](=O)[O-])cc3)nccc12`, the EC50 was 1 µg/mL (≈ 2.9 µM).

Regarding `COc1ccc2c(c1)[nH]c1c(C)[n+](C)ccc12.[I-]`, the EC50 came out at 8.4 µg/mL.

With `CCCCCCOc1ccc2c(c1)[nH]c1c(C)nccc12`, the EC50 was more than 5 µg/mL.

Regarding `Br.COc1ccc2c3c([nH]c2c1)C(C)=NCC3`, the EC50 was more than 10 µg/mL.

In a further assay the test system is U-87 MG. The experiment in a line: In vitro cytotoxic activity against U-87-MG (glioblastoma) cell line. The format is functional, U-87MG ATCC. The following applies: Homo sapiens, read-out: ED50 (the source's name).
Consider `COc1ccc2c(c1)[nH]c1c(C)nccc12` [HARMINE], for which the EC50 was determined as 14.5 µg/mL (≈ 68.3 µM).

On to `COc1ccc2c(c1)[nH]c1c(/C=C/c3ccc([N+](=O)[O-])cc3)nccc12`, for which the EC50 turned out to be 1.2 µg/mL (≈ 3.47 µM).

Consider `COc1ccc2c(c1)[nH]c1c(C)[n+](C)ccc12.[I-]`, for which the EC50 is 6.2 µg/mL.

With `CCCCCCOc1ccc2c(c1)[nH]c1c(C)nccc12`, the EC50 was 4.2 µg/mL (≈ 14.9 µM).

As to `Br.COc1ccc2c3c([nH]c2c1)C(C)=NCC3`, the EC50 turned out to be 9.8 µg/mL.

For the next assay, the system named is SAOS-2. Description: In vitro cytotoxic activity was determined against osteosarcoma (SaOS-2) cell line. The format is functional. The following applies: Homo sapiens, read-out: ED50 (the source's name).
Turning to `COc1ccc2c(c1)[nH]c1c(/C=C/c3ccc([N+](=O)[O-])cc3)nccc12`, the EC50 was found to be 0.9 µg/mL (≈ 2.61 µM).

Turning to `COc1ccc2c(c1)[nH]c1c(C)[n+](C)ccc12.[I-]`, the EC50 worked out at 8.2 µg/mL.

Take `Br.COc1ccc2c3c([nH]c2c1)C(C)=NCC3`: the EC50 worked out at 6.8 µg/mL.

For a further assay, the system named is 1A9. The experiment in a line: In vitro cytotoxic activity was determined against ovarian cancer (1A9) cell line. Conditions: Homo sapiens, read-out: ED50 (the source's name). The format is functional.
Consider `COc1ccc2c(c1)[nH]c1c(C)nccc12` [HARMINE], for which the EC50 is 1.6 µg/mL (≈ 7.54 µM).

Take `COc1ccc2c(c1)[nH]c1c(/C=C/c3ccc([N+](=O)[O-])cc3)nccc12`: the EC50 was determined as 0.3 µg/mL (≈ 0.869 µM).

Take `COc1ccc2c(c1)[nH]c1c(C)[n+](C)ccc12.[I-]`: the EC50 was 7 µg/mL.

Consider `CCCCCCOc1ccc2c(c1)[nH]c1c(C)nccc12`, for which the EC50 was found to be 1.9 µg/mL (≈ 6.73 µM).

As for `CCCCCCCCC1NC(C(=O)O)Cc2c1[nH]c1cc(OC)ccc21` (stereo not drawn), the EC50 was more than 20 µg/mL.

Regarding `Br.COc1ccc2c3c([nH]c2c1)C(C)=NCC3`, the EC50 was more than 10 µg/mL.
